The results in this text go back to PubChem BioAssay AID2060883 (Molecular Pharmacology Branch, DTP, NCI, 2025).

This assay relates to 843782-103-R-J1-PDC complex spheroid viability. Put plainly: Anticancer human tumor 843782-103-R-J1-PDC patient-derived lung adenocarcinoma cell line growth inhibition [RAS]. The note with it: for viability, T/C: stronger effect = lower value. An excerpt: RAS pathway inhibitors in Combinations in Complex Spheroids
A high-throughput screen of multi-cell type tumor spheroids was designed to identify active combinations of RAS pathway inhibitors and targeted small molecules. Complex spheroids include a stromal component modeled by human endothelial cells (HUVEC) and fibroblasts modeled by human mesenchymal stem cells (MSCs). The concentration ranges selected for each drug and investigational agent were based upon clinically achievable concentrations if the clinical Cmax of the agent was known.
Compounds. The drugs and investigational agents: abemaciclib (NSC768073), cobimetinib (NSC768068), divarasib (GDC6063, NSC841802), docetaxel (NSC628503), GDC-1971 (RLY-1971, NSC841576), gemcitabine (NSC613327), inavolisib (NSC800729), ipatasertib (NSC767898), KB-0742 (NSC834161), MRTX-1133 (NSC836407), osimertinib (NSC779217), RMC-4630 (NSC839698), RMC-6236 (NSC851965), RMC-6291 (NSC852671), Ro-3306 (NSC812927), sapanisertib (NSC764658), SN-38 (NSC673596), staurosporine (NSC755774), SY5609 (NSC837396), and tovorafenib (DAY101, NSC766906), were obtained from the National Cancer Institute (NCI) Developmental Therapeutics Program Chemical Repository. The FDA-approved anticancer drug set is available from the NCI Developmental Therapeutics Program. […] The stock solutions were prepared in dimethyl sulfoxide (DMSO, Sigma-Aldrich, St. Louis, MO, cat. D2650) at 800-fold the tested concentration and stored at -70 degrees C prior to their use. All drugs and investigational agents were tested over a range starting from a high concentration at or near the clinical Cmax and decreasing in half-log increments. If the clinical Cmax for an agent had not been determined, the highest concentration tested was 10 microM.
Cell Culture. All cells were maintained in an incubator at 37 degrees C and 5% CO2 with 95% humidity. The PDC lines were cultured according to standard operating procedures established by the NCI PDMR. All PDCs were thawed and cultured in Matrigel-coated flasks prepared with a working solution of 1X Ham's F-12 nutrient mix, without supplementation (Invitrogen, Waltham, MA, cat. 11765054), 100 U/mL penicillin-streptomycin (Invitrogen, cat. 15140122), and 2.5% Matrigel (Corning Inc., Corning, NY, cat. 354248) for the first three passages. The 362531-283-R-J2-PDC and 782815-120-R-J1-PDC lines were cultured in 6C/Colon 1B media, which includes advanced DMEM/F-12 (Thermo Fisher Scientific, cat. 12634028), 10 mM HEPES (Thermo Fisher Scientific, cat. 15630080), 1X GlutaMAX supplement (Thermo Fisher Scientific, cat. 35050061), 0.1 mg/mL primocin (InvivoGen, San Diego, CA, cat. ant-pm-2), 10% defined fetal bovine serum, heat inactivated (HyClone Laboratories Inc., Logan, UT, cat. SH30070.03HI), 50% L-WRN conditioned media (ATCC, cat. CRL-3276), 1.25 mM N-Acetyl-L-cysteine (Sigma-Aldrich, cat. A9165), 10 mM nicotinamide (Sigma-Aldrich, cat. N0636), 1X B-27 supplement (Thermo Fisher Scientific, cat. 17504044), 1X N-2 supplement (Thermo Fisher Scientific, cat. 17502048), 50 ng/mL human EGF (Thermo Fisher Scientific, cat. PHG0311), and 10 microM Y-27632 dihydrochloride (Tocris Bioscience, cat. 1254). The K12877-001-R-J1-PDC line was cultured in 6I media, which includes all 6C/Colon 1B media plus 10 ng/mL human FGF-10 (PeproTech, cat. 100-26), 1 ng/mL human FGF-2 (PeproTech, cat. 100-18B), 1 µM prostaglandin E2 (Tocris Bioscience, cat. 2296), […] hydrocortisone (Sigma-Aldrich, cat. H4001), and […] bovine insulin (Sigma-Aldrich, cat. I6634). The K86415-001-R-J1-PDC line was cultured in 6D media, which includes all 6C/Colon 1B media components minus the L-WRN conditioned media. The 485176-168-R4-J1-PDC was cultured in PANC media, which includes all 6C/Colon 1B media plus 100 ng/mL human FGF-10 (PeproTech, cat. 100-26), 500 nM SB-431542 (Selleckchem, cat. S1067), and 10 nM gastrin (Tocris Bioscience, cat. 3006). […]

The term IC50 denotes the concentration that inhibits the measured activity by half. By viability, T/C is commonly meant the result in the treated group divided by that in the control group, in per cent.
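Further: viability read after seven days of compound exposure.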

For `Cc1nc(N2CCC3(CC2)COC(C)C3N)c(CO)nc1Sc1ccnc(N)c1Cl` (stereo not drawn) + C=CC(=O)N1CCN(c2nc(OCC3CCCN3C)nc3c(F)c(-c4nc(N)cc(C)c4C(F)(F)F)c(Cl)cc23)C(C)C1, the concentration for half-maximal inhibition (IC50) was 211 nM (curve of first compound, second compound 0.00316 µM); 385 nM (curve of first compound, second compound 0.01 µM); 200 nM (curve of first compound, second compound 0.0316 µM); 311 nM (curve of first compound, second compound 0.1 µM); 277 nM (curve of first compound, second compound 0.316 µM); 313 nM (curve of first compound, second compound 1 µM). Moreover, the viability, T/C runs as follows: (second compound 0.00316 µM, first compound 0.0316 µM) 88.9%; (second compound 0.00316 µM, first compound 0.1 µM) 58.6%; (second compound 0.00316 µM, first compound 0.316 µM) 47.4%; (second compound 0.00316 µM, first compound 1 µM) 32.8%; (second compound 0.00316 µM, first compound 3.16 µM) 32.5%; (second compound 0.00316 µM, first compound 10 µM) 27.2%. In addition, the viability, T/C is 79.5% (second compound 0.01 µM, first compound 0.0316 µM); 66.8% (second compound 0.01 µM, first compound 0.1 µM); 51.4% (second compound 0.01 µM, first compound 0.316 µM); 37.4% (second compound 0.01 µM, first compound 1 µM); 35.6% (second compound 0.01 µM, first compound 3.16 µM); 22.6% (second compound 0.01 µM, first compound 10 µM). Also, the viability, T/C runs as follows: (second compound 0.0316 µM, first compound 0.0316 µM) 77.7%; (second compound 0.0316 µM, first compound 0.1 µM) 57.6%; (second compound 0.0316 µM, first compound 0.316 µM) 45.8%; (second compound 0.0316 µM, first compound 1 µM) 36.2%; (second compound 0.0316 µM, first compound 3.16 µM) 30.5%; (second compound 0.0316 µM, first compound 10 µM) 32.1%. Moreover, the viability, T/C is 70% (second compound 0.1 µM, first compound 0.0316 µM); 61.4% (second compound 0.1 µM, first compound 0.1 µM); 51.5% (second compound 0.1 µM, first compound 0.316 µM); 35% (second compound 0.1 µM, first compound 1 µM); 35.1% (second compound 0.1 µM, first compound 3.16 µM); 27.1% (second compound 0.1 µM, first compound 10 µM). For the same molecule, the viability, T/C was 85.7% (second compound 0.316 µM, first compound 0.0316 µM); 67% (second compound 0.316 µM, first compound 0.1 µM); 48% (second compound 0.316 µM, first compound 0.316 µM); 34.2% (second compound 0.316 µM, first compound 1 µM); 35.5% (second compound 0.316 µM, first compound 3.16 µM); 26.9% (second compound 0.316 µM, first compound 10 µM). Besides, the viability, T/C runs as follows: (second compound 1 µM, first compound 0.0316 µM) 80.6%; (second compound 1 µM, first compound 0.1 µM) 64.3%; (second compound 1 µM, first compound 0.316 µM) 49.7%; (second compound 1 µM, first compound 1 µM) 40.2%; (second compound 1 µM, first compound 3.16 µM) 31.1%; (second compound 1 µM, first compound 10 µM) 29.7%.

`CC1(O)CCCC1n1c(=O)c(C(F)F)cc2cnc(NC3CCN(S(C)(=O)=O)CC3)nc21` (stereo not drawn): the viability, T/C (compound 0.0316 µM) is 103% [middle of 4 runs]; the viability, T/C (compound 0.316 µM) is 31.9% [middle of 4 runs]; the viability, T/C (compound 1 µM) is 37.1% [middle of 4 runs]; the viability, T/C (compound 3.16 µM) was 23.7% [middle of 4 runs]; the viability, T/C (compound 10 µM) is 3.54% [middle of 4 runs]. Moreover, the half-maximal inhibitory concentration (IC50) (curve of compound) is 307 nM [middle of 4 runs].
